{"source": "the supplement of paper PMC3974653", "note": "Structures can show the parent of a compound that is named as a salt.", "data": [{"test_system": "MTT (mouse pheochromocytoma)", "experiment": "IC50 of cell viability (ATP content)", "settings": "(24 or 48 h)", "method_in_brief": "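MTT mouse pheochromocytoma cells (5 µl of 200,000 cells/ml per well, white 1536-well plates, DMEM with 5% FBS and 1% horse serum) were cultured overnight at 37°C, 5% CO2. They then received 23 nl library compound in DMSO by pintool at 8 concentrations (final 0.5 nM to 46 µM) for 24 or 48 hrs. CellTiter-Glo ATP luminescence was read after 15 minutes. Signals were normalised to positive-control (100% inhibition) and DMSO (0%) wells, and IC50 came from a four-parameter logistic fit.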", "units": {"IC50 of cell viability": "µM"}, "values": [{"smiles": "N\\C1=N\\C2=C(N(CC=C)C(=O)N2C3OC(CO)C(O)C3O)/C(=O)N1", "note": "(configuration not stated) [LOXORIBINUM]", "IC50 of cell viability": "> 46"}, {"smiles": "CCCCCCc1ccc(O)cc1O", "note": "[4-Hexylresorcinol]", "IC50 of cell viability": "> 46"}, {"smiles": "CCCCc1oc2ccccc2c1C(=O)c1cc(I)c(OCCN(CC)CC)c(I)c1", "note": "[AMIODARONE]", "IC50 of cell viability": "> 46"}, {"smiles": "CCCCCCCCCCCCCC(=O)OC(C)C", "note": "[Tetradecanoic acid, 1-methylethyl ester]", "IC50 of cell viability": "> 46"}, {"smiles": "CC(C)(C)NCC(O)c1ccccc1Cl.Cl", "note": "(configuration not stated) [TULOBUTEROL]", "IC50 of cell viability": "> 46"}, {"smiles": "CCCC1CCCCN1", "note": "(configuration not stated) [CONIINE]", "IC50 of cell viability": "> 46"}, {"smiles": "C#Cc1cccc(Nc2ncnc3cc(OCCOC)c(OCCOC)cc23)c1", "note": "[Erlotinib]", "IC50 of cell viability": "> 46"}, {"smiles": "CC(=O)O[C@]1(C(C)=O)CCC2C3CCC4=CC(=O)CCC4(C)C3(F)C(O)CC21C", "note": "(some centres not stated) [Flurogestone acetate]", "IC50 of cell viability": "> 46"}, {"smiles": "NC(=O)NS(=O)(=O)c1ccc(N)cc1", "note": "[SULFACARBAMIDUM]", "IC50 of cell viability": "> 46"}, {"smiles": "CCOC(=O)c1cc(-c2ccccc2)nc2ccc(C)cc12", "note": "[Neocinchophen]", "IC50 of cell viability": "> 46"}, {"smiles": "NC(=O)N/N=C/c1ccc([N+](=O)[O-])o1", "note": "[Nitrofurazone]", "IC50 of cell viability": "> 46"}, {"smiles": "Cc1cccc(Nc2ccncc2[S+](=O)([O-])NC(=O)NC(C)C)c1", "note": "[Torsemide]", "IC50 of cell viability": "> 46"}, {"smiles": "Cc1c(-c2ccc(O)cc2)n(Cc2ccc(OCCN3CCCCCC3)cc2)c2ccc(O)cc12", "note": "[Bazedoxifene]", "IC50 of cell viability": "> 46"}, {"smiles": "O=C(O)CN(CCOCCOCCN(CC(=O)O)CC(=O)O)CC(=O)O", "IC50 of cell viability": "> 46"}, {"smiles": "N[C@H]([C@@H]1C\\C(=N/O1)Cl)C(O)=O", "note": "[ACIVICIN]", "IC50 of cell viability": "> 46"}, {"smiles": "OC(=O)CN(CC(O)=O)CC1=CC/2=C(OC/3=C/C(=O)/C(=C\\C3=C2C4=CC=CC=C4C(O)=O)CN(CC(O)=O)CC(O)=O)C=C1O", "note": "[CALCEIN]", "IC50 of cell viability": "> 46"}, {"smiles": "CSCCC(N)C(=O)O", "note": "(configuration not stated) [METHIONINE]", "IC50 of cell viability": "> 46"}, {"smiles": "C=C1NC(=O)c2cc(CN(C)c3ccc(C(=O)N[C@@H](CCC(=O)O)C(=O)O)s3)ccc2N1", "note": "[RALTITREXED]", "IC50 of cell viability": "> 46"}, {"smiles": "COc1cc2nc(N(C)CCCNC(=O)[C@H]3CCCO3)nc(N)c2cc1OC", "note": "[Alfuzosin hydrochloride]", "IC50 of cell viability": "> 46"}, {"smiles": "Cl.O=C1NCC2(CCN(CCc3ccccc3)CC2)O1", "note": "[FENSPIRIDE HYDROCHLORIDE]", "IC50 of cell viability": "> 46"}, {"smiles": "N[S+]([O-])(=O)C1=C(Cl)C=C2NC(N[S+]([O-])(=O)C2=C1)C3CC\\4CC3\\C=C4", "note": "(configuration not stated) [CYCLOTHIAZIDE]", "IC50 of cell viability": "> 46"}, {"smiles": "CC(=O)OCC(=O)Nc1cc(C#N)cc(NC(=O)COC(C)=O)c1Cl", "note": "[Acreozast]", "IC50 of cell viability": "> 46"}, {"smiles": "COc1ccc2cc(C(C)C(=O)[O-])ccc2c1.[Na+]", "note": "(stereo in doubt) [(R) -Naproxen sodium salt]", "IC50 of cell viability": "> 46"}, {"smiles": "CCCc1nc(C)c2c(=O)nc(-c3cc([S+](=O)([O-])N4CCN(CC)CC4)ccc3OCC)[nH]n12", "note": "[VARDENAFIL HYDROCHLORIDE]", "IC50 of cell viability": "> 46"}, {"smiles": "O=C(O)CCC/C=C\\C[C@@H]1[C@@H](/C=C/[C@@H](O)COc2cccc(C(F)(F)F)c2)[C@H](O)C[C@@H]1O", "note": "[Fluprostenol sodium]", "IC50 of cell viability": "> 46"}, {"smiles": "Cl.O.O=C1Cc2cc(CCN3CCN(c4nsc5ccccc45)CC3)c(Cl)cc2N1", "note": "[Ziprasidone hydrochloride monohydrate]", "IC50 of cell viability": "> 46"}, {"smiles": "CC[C@H]1C[C@H]2[C@@H]3CCC/4=C/C(=O)CC[C@@H]4[C@H]3CC[C@]2(C)[C@H]1O", "note": "[Oxendolone]", "IC50 of cell viability": "> 46"}, {"smiles": "CC(CO)NC(=O)C1C=C2c3cccc4[nH]cc(c34)CC2N(C)C1", "note": "(configuration not stated) [ERGONOVINE]", "IC50 of cell viability": "> 46"}, {"smiles": "CCCCCCCCCCCCCCCCN", "note": "[Hetaflur]", "IC50 of cell viability": "> 46"}, {"smiles": "Oc1c(I)cc(Cl)c2cccnc12", "note": "[Iodochlorohydroxyquinoline]", "IC50 of cell viability": "> 46"}, {"smiles": "c1ccc(OCc2ccc(CCCN3CCOCC3)cc2)cc1", "note": "[FOMOCAINUM]", "IC50 of cell viability": "> 46"}, {"smiles": "OB(O)O", "note": "[Boric acid]", "IC50 of cell viability": "> 46"}]}]}
